Data: US20100041089A1, “IMPROVED METHOD FOR DETECTING CHEMICAL […]” (priority 2006, published 2010)

Tested on: yeast genes (expressed mRNA)
Test: DNA chip measurement of expressed mRNA of yeast genes after culture with a toxic chemical substance
Type: cell-based, Saccharomyces cerevisiae S288C
Experimental: Yeast (Saccharomyces cerevisiae S288C (a SUC2mal mel gap2 CUP1)) were cultured at 25° C. on YPD medium (yeast extract 1%, polypeptone 2%, glucose 2%). One of toxic chemical substances was added to the cell at logarithmic growth phase, and the cell was further cultured for two hours. Cell was cultured without any chemical substance in the same condition, and was used as a control. Concentrations of the chemical substances were defined to inhibit the growth of the yeast but not lead to death.
After the completion of cultivation, the culture was centrifuged to collect the cells. To the cells, sodium acetate buffer (50 mM sodium acetate, 10 mM EDTA, 1% SDS) was added, and the mixture was shaken at 65° C. for five minutes, followed by returning to room temperature, and obtaining the supernatant, which procedure was repeated two times. To the supernatant, ½ amount of a solution of phenol/chloroform (1:1) was added, and the mixture was centrifuged to give a supernatant, an equal amount of chloroform was added, and the mixture was centrifuged to give a supernatant. To the supernatant, an equal amount of isopropanol containing 0.3 M sodium acetate was added, and the mixture was allowed to stand at room temperature for 30 minutes, after which the mixture was centrifuged to give sediment of the whole RNAs. Seventy % ethanol was added to the sediment, and the mixture was again centrifuged to give sediment, which was then dried and dissolved in water. mRNA was isolated from the whole RNAs as followings. In view of the fact that a poly A chain is attached to the 3′ terminus of mRNA, a polynucleotide having a poly T structure which was immobilized on the surface of latex beads was used to trap the mRNA, and then the mRNA was washed and eluted with spine column (Oligotex-dT30<Super>mRNA Purification Kit, Takara). Reverse transcription of the mRNA was conducted with a reverse transcriptase (Super Script II Reverse Transcriptase; catalogue No. 18064-014, GibcoBRL) using fluorescence-labeled nucleotides to give cDNAs that were introduced with Cy3-dUTP or Cy5-dUTP during the reverse transcription.
The labeled cDNAs were dissolved in TE buffer (10 mM Tris-HCl/1 mM EDTA, pH 8.0), and the solution was dropped on the DNA chip containing the whole genes of yeast (DNA Chip Research Inc. Japan) so that the cDNAs were hybridized on the DNA chip at 65° C. for over 12 hours. The fluoresces intensity of the DNA chip was read with a scanner, and the ratio relative to the fluorescence intensity resulting from the absence of chemical substance was estimated as the following, which is shown in Tables 1 to 9.
In the Tables, “Intensity” indicated in the rightmost column is a value of the level of expressed mRNA of each gene in control cells as divided by the average level of the expressions of the whole genes. A gene of which mRNA level is lower in control, and is higher in cases of addition of chemical substance, is especially useful in the detection of toxic substances.
Here, when a ratio of an amount of mRNA expressed in the presence of the chemical substance to an amount of mRNA expressed in the absence of the chemical substance is two or more, then it is considered significant.

Compound: Oc1cc(Cl)c(Cl)cc1Cl [(6), 2,4,5-Trichlorophenol]
- The level of expressed mRNA in the presence of chemical substance/The level of expressed mRNA in the absence of chemical substance (yeast gene YFL032W, cultured two hours with substance): 0.6
- The level of expressed mRNA in the presence of chemical substance/The level of expressed mRNA in the absence of chemical substance (yeast gene YGL037C, cultured two hours with substance): 1.3
- The level of expressed mRNA in the presence of chemical substance/The level of expressed mRNA in the absence of chemical substance (yeast gene YGL047W, cultured two hours with substance): 1.5
- The level of expressed mRNA in the presence of chemical substance/The level of expressed mRNA in the absence of chemical substance (yeast gene YGL053W, cultured two hours with substance): 2.7
- The level of expressed mRNA in the presence of chemical substance/The level of expressed mRNA in the absence of chemical substance (yeast gene YGL117W, cultured two hours with substance): 0.9
- The level of expressed mRNA in the presence of chemical substance/The level of expressed mRNA in the absence of chemical substance (yeast gene YGL121C, cultured two hours with substance): 9.8
- The level of expressed mRNA in the presence of chemical substance/The level of expressed mRNA in the absence of chemical substance (yeast gene YGL199C, cultured two hours with substance): 0.7
- The level of expressed mRNA in the presence of chemical substance/The level of expressed mRNA in the absence of chemical substance (yeast gene YGR043C): 16.3
- The level of expressed mRNA in the presence of chemical substance/The level of expressed mRNA in the absence of chemical substance (yeast gene YGR043C, cultured for two hours with substance): 16.3
- The level of expressed mRNA in the presence of chemical substance/The level of expressed mRNA in the absence of chemical substance (yeast gene YGR101W, cultured two hours with substance): 0.9
- The level of expressed mRNA in the presence of chemical substance/The level of expressed mRNA in the absence of chemical substance (yeast gene YGR108W): 0.1
- The level of expressed mRNA in the presence of chemical substance/The level of expressed mRNA in the absence of chemical substance (yeast gene YGR110W, cultured two hours with substance): 0.9
- The level of expressed mRNA in the presence of chemical substance/The level of expressed mRNA in the absence of chemical substance (yeast gene YGR130C, cultured two hours with substance): 0.9
- The level of expressed mRNA in the presence of chemical substance/The level of expressed mRNA in the absence of chemical substance (yeast gene YGR154C, cultured two hours with substance): 1.4
- The level of expressed mRNA in the presence of chemical substance/The level of expressed mRNA in the absence of chemical substance (yeast gene YGR221C, cultured two hours with substance): 3.0
- The level of expressed mRNA in the presence of chemical substance/The level of expressed mRNA in the absence of chemical substance (yeast gene YHL040C (detoxification protein gene)): 7.3
- The level of expressed mRNA in the presence of chemical substance/The level of expressed mRNA in the absence of chemical substance (yeast gene YHL040C (transport facilitation protein gene)): 7.3
- The level of expressed mRNA in the presence of chemical substance/The level of expressed mRNA in the absence of chemical substance (yeast gene YHR029C, cultured two hours with substance): 2.7
- The level of expressed mRNA in the presence of chemical substance/The level of expressed mRNA in the absence of chemical substance (yeast gene YHR138C, cultured two hours with substance): 3.8
- The level of expressed mRNA in the presence of chemical substance/The level of expressed mRNA in the absence of chemical substance (yeast gene YHR199C, cultured two hours with substance): 1.1
- The level of expressed mRNA in the presence of chemical substance/The level of expressed mRNA in the absence of chemical substance (yeast gene YIL023C, cultured two hours with substance): 0.9
- The level of expressed mRNA in the presence of chemical substance/The level of expressed mRNA in the absence of chemical substance (yeast gene YIL024C, cultured two hours with substance): 1.0
- The level of expressed mRNA in the presence of chemical substance/The level of expressed mRNA in the absence of chemical substance (yeast gene YIL041W, cultured two hours with substance): 1.0
- The level of expressed mRNA in the presence of chemical substance/The level of expressed mRNA in the absence of chemical substance (yeast gene YIL087C, cultured two hours with substance): 4.1
- The level of expressed mRNA in the presence of chemical substance/The level of expressed mRNA in the absence of chemical substance (yeast gene YIL117C, cultured two hours with substance): 1.2
- The level of expressed mRNA in the presence of chemical substance/The level of expressed mRNA in the absence of chemical substance (yeast gene YJL057C, cultured two hours with substance): 1.4
- The level of expressed mRNA in the presence of chemical substance/The level of expressed mRNA in the absence of chemical substance (yeast gene YJL066C, cultured two hours with substance): 1.4
- The level of expressed mRNA in the presence of chemical substance/The level of expressed mRNA in the absence of chemical substance (yeast gene YJL082W, cultured two hours with substance): 0.2
- The level of expressed mRNA in the presence of chemical substance/The level of expressed mRNA in the absence of chemical substance (yeast gene YJL108C, cultured two hours with substance): 0.6
- The level of expressed mRNA in the presence of chemical substance/The level of expressed mRNA in the absence of chemical substance (yeast gene YJL149W, cultured two hours with substance): 0.7
- The level of expressed mRNA in the presence of chemical substance/The level of expressed mRNA in the absence of chemical substance (yeast gene YJL151C, cultured two hours with substance): 2.2
- The level of expressed mRNA in the presence of chemical substance/The level of expressed mRNA in the absence of chemical substance (yeast gene YJL152W, cultured two hours with substance): 1.5
- The level of expressed mRNA in the presence of chemical substance/The level of expressed mRNA in the absence of chemical substance (yeast gene YJL161W, cultured two hours with substance): 8.0
- The level of expressed mRNA in the presence of chemical substance/The level of expressed mRNA in the absence of chemical substance (yeast gene YJL171C, cultured two hours with substance): 2.7
- The level of expressed mRNA in the presence of chemical substance/The level of expressed mRNA in the absence of chemical substance (yeast gene YJL186W, cultured two hours with substance): 0.7
- The level of expressed mRNA in the presence of chemical substance/The level of expressed mRNA in the absence of chemical substance (yeast gene YJR008W, cultured two hours with substance): 2.2
